Laboratory results as given in US20110262562A1, “AQUEOUS SALINE SOLUTIONS FOR THE DESTRUCTION OF FATTY TISSUE” (LIPOLYANE, priority 2008, published 2011).

Legend:
[1] = test system: line of human adipocytes (SW872); assay: LDH activity released on lysis of human adipocytes in culture; assay type: cell-based
Description: To do this, adipocytes were incubated for durations comprised between 0 and 2 hours, in aqueous saline solutions according to the invention, and for which the concentrations of poloxamers and of biliary acid […]
The efficiency of adipocyte lysis was appreciated by the measurement of the activity of a cytosolic enzyme lactico dehydrogenase (LDH), released in the culture medium and expressed as a percentage of the total lysis.
The cells were derived from a line of human adipocytes (SW872) stemming from a liposarcoma deposited at the American Cell Bank of the National Institute of Health (NIH).
The adipocytes were cultivated in the following medium: DMEM (Dubelco's modified Eagle medium) with a high glucose content (4.5 g/L) which contained pyruvate, antibiotics (penicillin/streptomycin), a supplement of amino acids and 25% of Ham-F12 medium.
It should be noted that the experiments were then conducted in the presence of 1% fetal calf serum in order to minimize basal LDH activity likely to be present in the serum.
The salts of biliary acids and/or the poloxamers were put into solution in the aforementioned culture medium under sterile conditions. Suitable diluted aqueous saline solutions were made from parent solutions at 2% for poloxamers and 3 mM for the biliary acid salt.
The adipocytes were cultivated under sterile conditions (plastic dishes, incubator with 5% CO2, 37° C.) in suitable specific media and used for less than 10 passages oso as to conduct experiments on primary cells, i.e. close to the original adipous tissues. Cell counts were carried out in Mallassez cells and the viability was appreciated by exclusion of the blue dye Trypan.
After re-suspending them under the action of trypsin, the adipocytes were incubated in sterile 96-well plates. For experiments requiring significant amounts of cells, the preliminary incubations were conducted in sterile 24-well plates, and then transferred into 96-well plates (round bottom) for centrifugation, in order to efficiently separate entire cells from lyzed cells having released their enzymatic content then again found in the supernatant. An aliquot (100 μL) of the latter was then transferred into another 96-well plate adapted to dosages (flat bottom). After addition of the mixture of corresponding reagents (kit BioChain #K6330400), LDH activity was then measured (after incubation for 40 minutes with intermittent orbital stirring) in a computerized plate reader (MR5000/Biolinx, Dynatech) at the wavelength of 490 nm corrected from absorbance at 630 nm. The results are expressed as a percentage of the total lysis carried out in the presence of detergent (1% Triton X100).

[2] = test system: adipocytes prepared from murine adipous tissues; assay: LDH released into the culture medium by murine adipocytes; assay type: cell-based; conditions: TDC 500 μM in 150 mOsm/L, compared with 150 mOsm/L alone (FIG. 7)
Description: Adipocytes were prepared from murine adipous tissues in the following way. Adipous tissues were sampled under aseptic conditions on anesthetized animals, and then finally cut and subjected to a dissociating enzymatic treatment with collagenase type II at 37° C. The incubation mixture was then centrifuged in order to remove the tissue debris. The adipocytes were purified by filtration under sterile conditions on a 160 μm nylon filter. After mild centrifugation, the adipocytes were washed from a phosphate buffer solution with pH 7.4 and, after counting, taken up again into a cell culture medium adapted from the type of Dubelco Modified Eagle's Medium or DMEM, and finally placed in sterile culture flasks and incubator at 37° C. adapted to the experiments. […]
Cell lysis was appreciated by the change in the number of adipocytes on the one hand and by the dosage of an intracellular enzyme released into the culture medium, lactico-dehydrogenase (abbreviated hereafter as LDH) on the other hand, expressed as a percentage with respect to the conditions for which cell lysis is complete (obtained in the presence of distilled water) and by comparison with the conditions of cell cultures.

Compound	lytic activity (LDH activity) ([1]; 300 mOsm/L, 750 μM of DC, after one hour (FIG. 15 B))	maximum lysis (LDH activity) ([1]; 300 mOsm/L, DC 0 to 750 μM, incubation of one hour)	LDH activity ([1]; 300 mOsm/L, DC 750 μM, after 30 minutes of incubation)	LDH activity ([1]; 300 mOsm/L, DC 750 μM, after 2 hours of incubation)	LDH activity ([1]; DC 750 μM added to hypo-osmolar (160 mOsm/L) aqueous saline solution, after one hour (FIG. 15 D or F))	activity of LDH in the medium [2]
sodium deoxycholate [DC]	38±5%	42±7%	26%	37%	~72±8%	
C[C@H](CCC(=O)NCCS(=O)(=O)[O-])[C@H]1CC[C@H]2[C@@H]3CC[C@@H]4C[C@H](O)CC[C@]4(C)[C@H]3C[C@H](O)[C@]12C.[Na+] [TDC, sodium tauro-deoxycholate]						much more increased
